Data from ChEMBL document CHEMBL3085634, “Identification of elaiophylin derivatives from the marine-derived actinomycete Streptomyces sp. 7-145 using PCR-based screening” (2013).
Converted amounts (≈) assume the structure as drawn.

Legend:
Type in all cases: functional
Morganella morganii = assay: Antibacterial activity against beta-lactamase producing Morganella morganii ATCC 25830 assessed as growth inhibition after 18 hrs by agar dilution method; conditions: ATCC 25830, 18 h
Pseudomonas aeruginosa = assay: Antibacterial activity against beta-lactamase producing Pseudomonas aeruginosa ATCC 27853 assessed as growth inhibition after 18 hrs by agar dilution method; conditions: ATCC 27853, 18 h
Klebsiella pneumoniae [1] = assay: Antibacterial activity against New Delhi metallo-beta-lactamase 1 producing Klebsiella pneumoniae ATCC BAA-2146 assessed as growth inhibition after 18 hrs by agar dilution method; conditions: ATCC BAA-2146, 18 h
Klebsiella pneumoniae [2] = assay: Antibacterial activity against extended spectrum beta-lactamase producing Klebsiella pneumoniae ATCC 700603 assessed as growth inhibition after 18 hrs by agar dilution method; conditions: ATCC 700603, 18 h
Escherichia coli [3] = assay: Antibacterial activity against beta-lactamase producing Escherichia coli 09-20 assessed as growth inhibition after 18 hrs by agar dilution method; conditions: 09-20, 18 h
Escherichia coli [4] = assay: Antibacterial activity against extended spectrum beta-lactamase producing Escherichia coli 09-1 assessed as growth inhibition after 18 hrs by agar dilution method; conditions: 09-1, 18 h
Micrococcus luteus = assay: Antibacterial activity against apramycin-resistant Micrococcus luteus ATCC 10240 assessed as growth inhibition after 18 hrs by agar dilution method; conditions: ATCC 10240, 18 h
Enterococcus faecium [5] = assay: Antibacterial activity against vancomycin-sensitive Enterococcus faecium 09-10 assessed as growth inhibition after 18 hrs by agar dilution method; conditions: 09-10, 18 h
Enterococcus faecium [6] = assay: Antibacterial activity against vancomycin-resistant Enterococcus faecium ATCC 700221 assessed as growth inhibition after 18 hrs by agar dilution method; conditions: ATCC 700221, 18 h
Enterococcus faecalis [7] = assay: Antibacterial activity against vancomycin-resistant Enterococcus faecalis R6512 assessed as growth inhibition after 18 hrs by agar dilution method; conditions: R6512, 18 h
Enterococcus faecalis [8] = assay: Antibacterial activity against vancomycin-resistant Enterococcus faecalis W4138 assessed as growth inhibition after 18 hrs by agar dilution method; conditions: W4138, 18 h
Enterococcus faecalis [9] = assay: Antibacterial activity against vancomycin-resistant Enterococcus faecalis ATCC 51299 assessed as growth inhibition after 18 hrs by agar dilution method; conditions: ATCC 51299, 18 h
Enterococcus faecalis [10] = assay: Antibacterial activity against vancomycin-sensitive Enterococcus faecalis 09-8 assessed as growth inhibition after 18 hrs by agar dilution method; conditions: 09-8, 18 h
Enterococcus faecalis [11] = assay: Antibacterial activity against vancomycin-sensitive Enterococcus faecalis ATCC 29212 assessed as growth inhibition after 18 hrs by agar dilution method; conditions: ATCC 29212, 18 h
[12] = test system: Staphylococcus epidermidis; assay: Antibacterial activity against methicillin-resistant Staphylococcus epidermidis 09-3 assessed as growth inhibition after 18 hrs by agar dilution method; conditions: 09-3, 18 h
Staphylococcus aureus [13] = assay: Antibacterial activity against thiostrepton-resistant Staphylococcus aureus ATCC 6538P assessed as growth inhibition after 18 hrs by agar dilution method
Staphylococcus aureus [14] = assay: Antibacterial activity against methicillin-resistant Staphylococcus aureus R6101 assessed as growth inhibition after 18 hrs by agar dilution method; conditions: R6101, 18 h
Staphylococcus aureus [15] = assay: Antibacterial activity against methicillin-resistant Staphylococcus aureus 09-13 assessed as growth inhibition after 18 hrs by agar dilution method; conditions: 09-13, 18 h
Staphylococcus aureus [16] = assay: Antibacterial activity against methicillin-resistant Staphylococcus aureus ATCC 33591 assessed as growth inhibition after 18 hrs by agar dilution method; conditions: ATCC 33591, 18 h
Staphylococcus aureus [17] = assay: Antibacterial activity against methicillin-sensitive Staphylococcus aureus 09-6 assessed as growth inhibition after 18 hrs by agar dilution method; conditions: 09-6, 18 h
Staphylococcus aureus [18] = assay: Antibacterial activity against methicillin-sensitive Staphylococcus aureus ATCC 29213 assessed as growth inhibition after 18 hrs by agar dilution method; conditions: ATCC 29213, 18 h
[19] = test system: Staphylococcus epidermidis; assay: Antibacterial activity against methicillin-sensitive Staphylococcus epidermidis ATCC 12228 assessed as growth inhibition after 18 hrs by agar dilution method; conditions: ATCC 12228, 18 h

Row | Structure (SMILES) | MIC (Morganella morganii) [µg/mL] | MIC (Pseudomonas aeruginosa) [µg/mL] | MIC (Klebsiella pneumoniae [1]) [µg/mL] | MIC (Klebsiella pneumoniae [2]) [µg/mL] | MIC (Escherichia coli [3]) [µg/mL] | MIC (Escherichia coli [4]) [µg/mL] | MIC (Micrococcus luteus) [µg/mL] | MIC (Enterococcus faecium [5]) [µg/mL] | MIC (Enterococcus faecium [6]) [µg/mL] | MIC (Enterococcus faecalis [7]) [µg/mL] | MIC (Enterococcus faecalis [9]) [µg/mL] | MIC (Enterococcus faecalis [10]) [µg/mL] | MIC (Enterococcus faecalis [11]) [µg/mL] | MIC [12] [µg/mL] | MIC (Staphylococcus aureus [14]) [µg/mL] | MIC (Staphylococcus aureus [15]) [µg/mL] | MIC (Staphylococcus aureus [16]) [µg/mL] | MIC (Staphylococcus aureus [17]) [µg/mL] | MIC (Staphylococcus aureus [18]) [µg/mL] | MIC [19] [µg/mL] | further results
1 | CC[C@@H]1[C@@H](C)OC([C@@H](C)[C@H](O)[C@H](C)[C@H]2OC(=O)/C=C/C=C/[C@H](C)[C@@H]([C@@H](C)[C@@H](O)[C@H](C)[C@@]3(O)C[C@@H](O[C@H]4C[C@H](O)[C@H](O)[C@H](C)O4)[C@H](CC)[C@@H](C)O3)OC(=O)/C=C/C=C/[C@@H]2C)=C[C@H]1O[C@H]1C[C@H](O)[C@H](O)[C@H](C)O1 | > 64 | > 64 | > 64 | > 64 | > 64 | > 64 | 2 (≈ 1.99 µM) | > 64 | 4 (≈ 3.97 µM) | 4 (≈ 3.97 µM) | 2 (≈ 1.99 µM) | 2 (≈ 1.99 µM) | 2 (≈ 1.99 µM) | > 64 | > 64 | 2 (≈ 1.99 µM) | 2 (≈ 1.99 µM) | 2 (≈ 1.99 µM) | 2 (≈ 1.99 µM) | > 64 | MIC (Enterococcus faecalis [8]): 4 µg/mL (≈ 3.97 µM); MIC (Staphylococcus aureus [13]): 4 µg/mL (≈ 3.97 µM)
2 | CC[C@@H]1[C@@H](C)O[C@@](OC)([C@@H](C)[C@H](O)[C@H](C)[C@H]2OC(=O)/C=C/C=C/[C@H](C)[C@@H]([C@@H](C)[C@@H](O)[C@H](C)[C@@]3(OC)C[C@@H](O[C@H]4C[C@H](O)[C@H](O)[C@H](C)O4)[C@H](C)[C@@H](C)O3)OC(=O)/C=C/C=C/[C@@H]2C)C[C@H]1O[C@H]1C[C@H](O)[C@H](O)[C@H](C)O1 | > 128 | > 128 | > 128 | > 128 | > 128 | > 128 | 128 (≈ 123 µM) | 64 (≈ 61.6 µM) | 64 (≈ 61.6 µM) | > 128 | 64 (≈ 61.6 µM) | 64 (≈ 61.6 µM) | 64 (≈ 61.6 µM) | 64 (≈ 61.6 µM) | 16 (≈ 15.4 µM) | 32 (≈ 30.8 µM) | 32 (≈ 30.8 µM) | 32 (≈ 30.8 µM) | 32 (≈ 30.8 µM) | 64 (≈ 61.6 µM) | MIC (Enterococcus faecalis [8]): 64 µg/mL (≈ 61.6 µM); MIC (Staphylococcus aureus [13]): > 128 µg/mL
3 | CC[C@@H]1[C@@H](C)O[C@@](O)([C@@H](C)[C@H](O)[C@H](C)[C@H]2OC(=O)/C=C/C=C/[C@H](C)[C@@H]([C@@H](C)[C@@H](O)[C@H](C)[C@@]3(O)C[C@@H](O[C@H]4C[C@H](O)[C@H](O)[C@H](C)O4)[C@H](C)[C@@H](C)O3)OC(=O)/C=C/C=C/[C@@H]2C)C[C@H]1O[C@H]1C[C@H](O)[C@H](O)[C@H](C)O1 | > 64 | > 64 | > 64 | > 64 | > 64 | > 64 | 2 (≈ 1.98 µM) | > 64 | 2 (≈ 1.98 µM) | 2 (≈ 1.98 µM) | 2 (≈ 1.98 µM) | 16 (≈ 15.8 µM) | 2 (≈ 1.98 µM) | 4 (≈ 3.96 µM) | 2 (≈ 1.98 µM) | 2 (≈ 1.98 µM) | 2 (≈ 1.98 µM) | 2 (≈ 1.98 µM) | 2 (≈ 1.98 µM) | 4 (≈ 3.96 µM) | MIC (Enterococcus faecalis [8]): 4 µg/mL (≈ 3.96 µM); MIC (Staphylococcus aureus [13]): 2 µg/mL (≈ 1.98 µM)
4 | CC[C@@H]1[C@@H](C)O[C@@](OC)([C@@H](C)[C@H](O)[C@H](C)[C@H]2OC(=O)/C=C/C=C/[C@H](C)[C@@H]([C@@H](C)[C@@H](O)[C@H](C)[C@@]3(OC)C[C@@H](O[C@H]4C[C@H](O)[C@H](O)[C@H](C)O4)[C@H](CC)[C@@H](C)O3)OC(=O)/C=C/C=C/[C@@H]2C)C[C@H]1O[C@H]1C[C@H](O)[C@H](O)[C@H](C)O1 | > 256 | > 256 | > 256 | > 256 | > 256 | > 256 | – | 32 (≈ 30.4 µM) | – | – | – | – | – | – | – | – | – | – | – | – | –
5 | CC[C@H]1OC(=O)[C@H](C)[C@@H](O[C@H]2C[C@@](C)(OC)[C@@H](O)[C@H](C)O2)[C@H](C)[C@@H](O[C@@H]2O[C@H](C)C[C@H](N(C)C)[C@H]2O)[C@](C)(O)C[C@@H](C)CN(C)[C@H](C)[C@@H](O)[C@]1(C)O [AZITHROMYCIN] | 64 (≈ 85.4 µM) | 256 (≈ 342 µM) | 64 (≈ 85.4 µM) | 64 (≈ 85.4 µM) | > 256 | 64 (≈ 85.4 µM) | 2 (≈ 2.67 µM) | > 256 | > 256 | > 256 | > 256 | > 256 | 8 (≈ 10.7 µM) | > 256 | > 256 | > 256 | > 256 | 2 (≈ 2.67 µM) | 2 (≈ 2.67 µM) | > 256 | MIC (Enterococcus faecalis [8]): > 256 µg/mL; MIC (Staphylococcus aureus [13]): > 256 µg/mL
6 | CC[C@H]1OC(=O)[C@H](C)[C@@H](O[C@H]2C[C@@](C)(OC)[C@@H](O)[C@H](C)O2)[C@H](C)[C@@H](O[C@@H]2O[C@H](C)C[C@H](N(C)C)[C@H]2O)[C@](C)(O)C[C@@H](C)C(=O)[C@H](C)[C@@H](O)[C@]1(C)O [ERYTHROMYCIN] | > 256 | > 256 | > 256 | > 256 | > 256 | > 256 | – | > 256 | 64 (≈ 87.2 µM) | – | 8 (≈ 10.9 µM) | 32 (≈ 43.6 µM) | 16 (≈ 21.8 µM) | > 256 | – | > 256 | 256 (≈ 349 µM) | 0.25 (≈ 0.341 µM) | 0.25 (≈ 0.341 µM) | 16 (≈ 21.8 µM) | –
7 | Cc1onc(-c2ccccc2)c1C(=O)N[C@@H]1C(=O)N2[C@@H]1SC(C)(C)[C@@H]2C(=O)O [OXACILLIN] | 256 (≈ 638 µM) | > 256 | > 256 | > 256 | > 256 | > 256 | – | > 256 | > 256 | – | > 256 | > 256 | 4 (≈ 9.96 µM) | > 256 | > 256 | > 256 | > 256 | 0.5 (≈ 1.25 µM) | 0.5 (≈ 1.25 µM) | > 256 | –
